Counter-ions that a name gives are not always drawn. No end group written: not given here.
Experiments:
[1] = system: D-Galactose induced aging model rats; experiment: Water maze learning, D-galactose induced aging; type: in vivo, Sprague-Dawley rats; conditions: D-galactose 150 mg/kg/day i.p. alone for 9 weeks
Procedure: (§1) A plastic circular pool 183 cm in diameter was filled with water (25±2° C.). A circular platform was placed at a specific location from the edge of the pool and submerged below the water surface. Water was made cloudy by adding toxic-free dye. Distinctive visual cues were set on the wall. For spatial learning, animals were subjected to 3 trials per day, with one trial early in the morning, one trial at noon, and another in the late afternoon. The training procedure lasted 4 days, and a total of 12 trials were given. The rats were positioned at different starting points spaced equally around the perimeter of the pool in random order. They had 60 seconds to swim in the pool. If a rat could not find the platform, it was guided to the platform and was allowed to remain there for 20 seconds. The time each animal took to reach the platform was recorded as the escape latency. A probe trial of 60 seconds was given on Day 5 to test their memory retention. The rats were placed in the pool with the platform removed, and the time they spent in each quadrant (Quadrants 1, 2, 3, and 4) was recorded. The longer a rat stayed in the target quadrant (quadrant 4), the better memory the rat had. At the end of the experiment, the rats were subjected to visible platform learning. […] The time the rats found the platform was recorded. […]

[2] = system: MPTP-mouse model of Parkinson's disease; experiment: Rotarod performance test; type: in vivo, C57BL/6 male mice; conditions: MPTP 30 mg/kg i.p. alone; negative control 778.5 seconds; p<0.01
Procedure: C57BL/6 male mice at the age of 5 weeks were randomly divided into 3 groups and intraperitoneally injected with PBS (negative control), MPTP (30 mg/kg)(MPTP group), and C6 peptide (10.7 μg/kg) and MPTP (30 mg/kg)(C6+MPTP group), respectively. The injection volume was calculated based on the body weight of each mouse everyday. Mice of the C6+MPTP group were injected C6 peptide for 3 weeks prior to injection of C6 peptide and MPTP for 1 week, and then subjected to rotarod performance test.
Rotarod performance tests were conducted to measure the coordination of mice. Mice were placed on the rod and ran at 2 rpm constant speed for 2 minutes in order to adapt to the rod. After that, rod was started to accelerate to 20 rpm (within 5 minutes) and sustained for 15 minutes. The time (latency) at which each mouse fell off the rod was recorded.

[3] = system: Sco-induced amnesia animal model; experiment: Step-down passive avoidance test, scopolamine-induced memory deficits; type: in vivo, Sprague-Dawley rats; conditions: scopolamine 1.5 mg/kg/day alone; 1 day after footshock; vs control
Procedure: Animals were familiar to the instrument 24 hours before training. Next day rats placed on the elevated platform situated in the center of the floor of the passive avoidance test box and the latency to stepping down recorded. On the third day of the experiment immediately after stepping down, animals received mild electric shock (3V, 3 seconds duration, D.C.) through the grid floor and then returned to their home cages. On the following day (as 24 hours retention interval) rats placed on the platform again while no electric shock was given to them. Latency to step down recorded. If the rat remained on the platform for the 5 minutes, it assigned a maximum score of 300 seconds.
Rats were randomly divided into negative control group, Scopolamine only group, (C5+Sco) group and (C6+Sco) group, and rats in the four groups were injected with vehicle (negative control group and scopolamine only group), C5 peptide (54 μg/kg/day, C5+Sco group), and C6 peptide (5.4 μg/kg/day, C6+Sco group), respectively, for 14 consecutive days. After that, rats in the 4 groups were intraperitoneally injected with vehicle (negative control group), vehicle and scopolamine (1.5 mg/kg/day)(scopolamine only group), C5 peptide (54 μg/kg/day) and scopolamine (1.5 mg/kg/day) (C5+Sco group), and C6 peptide (5.4 μg/kg/day) and scopolamine (1.5 mg/kg/day) (C6+Sco group), respectively, for 7 consecutive days. […]

[4] = system: Sco-induced amnesia animal model; experiment: Water maze learning, scopolamine-induced memory impairment; type: in vivo, Sprague-Dawley rats; conditions: scopolamine 1.5 mg/kg/day i.p. alone; vs negative control; P<0.01
Procedure: as §1

[5] = system: Sco-induced amnesia animal model; experiment: Novel object recognition learning, scopolamine-induced memory deficits; type: in vivo, Sprague-Dawley rats; conditions: scopolamine 1.5 mg/kg/day alone; vs time on left object; P>0.05
Procedure: During familiarization, rats were allowed to explore 2 identical objects in an open field box (90×70×60 cm) for 5 min. The criteria used for exploration were a distance less than 1.5 cm between the rat and the object or direct contact with the object. During the retention test given 3 hours and 24 hours later, the rats were returned to the same box, but one of the familiar objects was replaced with a novel object of approximately the same size. The time that each rat spent exploring the 2 objects during a 5-min period was recorded. The rats placed in the open field box without any objects for 5 min were assigned to the non-trained group.
Both C5 peptide and C6 peptide ameliorate scopolamine-induced memory deficits. […] Then, behavioral experiments were conducted, and the injection program with scopolamine continued through the experimentation. The injection volume was 1 μL/g of body weight. The scopolamine injection was performed 30 minutes before behavioral experiments every morning, and the C5 peptide or C6 peptide injection was conducted once daily at 5:00 PM 1 day prior. […] Three (3) hours, 8 hours and 24 hours after, a novel object (NO) replaced the RO.

[6] = system: embryonic hippocampal primary neurons; experiment: Cell viability (MTT) assay for neurotoxicity; type: cell-based, Sprague-Dawley rats; conditions: 10^−3 M, 10^−6 M, 10^−9 M, 10^−12M for 24 hours from 1 DIV; p>0.05
Procedure: At the first day in vitro (1 DIV), embryonic hippocampal primary neurons were treated with 10^−3 M, 10^−6 M, 10^−9 M, 10^−12M C5 peptide or C6 peptide, respectively, for 24 hours, followed by cell viability assay.
Cell viability was evaluated by an MTT (3-(4,5-cimethylthiazol-2-yl)-2,5-diphenyl tetrazolium bromide) assay. Cells were incubated with an MTT reagent (0.5 mg/mL, Sigma-Aldrich, USA) at 37° C. for 1 hour. The MTT solution was removed, and DMSO was added to the wells shaken at room temperature for 1 hour. The amount of MTT formazan product was quantified by measuring its absorbance at 570 and 630 nm by using an ELISA plate reader (SpectraMax M2 Microplate Readers, Molecular Devices, Sunnyvale, Calif., USA).

[7] = system: embryonic hippocampal primary neurons; experiment: Neuronal outgrowth assay with immunocytochemistry (anti-Tau, anti-MAP2, DAPI); type: cell-based, Sprague-Dawley rats; conditions: for lengths of the first and second order axon branches: p<0.01 or p<0.05; for axon outgrowth: L-form peptide 10^−9 M, treatment at 3 DIV for 3 days, vs PBS negative control
Procedure: In order to culture embryonic hippocampal primary neurons, pregnant Sprague-Dawley rats were purchased from the National Laboratory Center in Taiwan (Taipei, Taiwan). The hippocampal tissue from the embryos of the Sprague-Dawley rats (embryonic day 19, E19) was dissociated with enzyme and plated onto poly-L-lysine-coated coverslips with a minimal essential medium containing 5% calf serum, 5% horse serum, and 50 ng/mL insulin-transferrin-selenite (Sigma-Aldrich, St. Louis, Mo., USA). After plating, the medium was replaced with 2% of B27-neurobasal medium (Invitrogen, Carlsbad, Calif., USA) containing 0.5 mM glutamine and […]. Embryonic hippocampal primary neurons were incubated at 37° C., 5% CO2 for further experimental treatment.
Primary hippocampal neuron cultures at 3 days in vitro (at DIV3) were treated with 10^−9 M, 10^−12M, 10^−15 M C5 peptide (L-form), 10^−9 M, 10^−12M, 10^−15 M C6 peptide (L-form), 10^−9 M P1 peptide (L-form), 10^−9 M P2 peptide (L-form), 10^−9 M P3 peptide (L-form), 10^−9 M P4 peptide (L-form), 10^−9 M P5 peptide (L-form), 10^−9 M P6 peptide (L-form), 10^−9 M C5 peptide (D-form), and 10^−12 C6 peptide (D-form), respectively, for 3 days, followed by immunocytochemistry. Embryonic hippocampal primary neurons of negative control were treated with PBS. Each treatment condition was run in 3 replicates.
Cultured hippocampal neurons were fixed with 4% paraformaldehyde and permeablized with 0.1% Triton X-100 at room temperature (RT). Cultures were then incubated in the primary rabbit anti-Tau antibody (a selective marker for axons, Millipore, Mass., USA) and the primary mouse anti-MAP2 antibody (microtubule-associated protein-2, which is a selective marker for dendrites, Millipore) for 1 hour at RT. After wash, cells were incubated with Alexa Fluor® 488 goat anti-rabbit secondary antibody (green fluorescence, Abcam Plc., UK) and Alexa Fluor® 594 goat anti-mouse secondary antibody (red fluorescence, Abcam Plc.) for 1 hour at RT. Then, nuclei were stained with 4′,6-diamidino-2-phenylindole (DAPI, blue fluorescence, Vector Laboratories, USA). After that, coverslips were mounted on the cells, and images were obtained by using an Axio Observer D1 microscope (Zeiss, Jena, Germany) and analyzed by ImageJ software (Inage Processing and Analysis in Java, National Institutes of Health, USA). Neuronal process longer than 10 μm is defined as a neurite.
An axon extending from the cell body of a neuron is defined as a first order axon branch; an axon extending from a first order axon branch is defined as a second order axon branch, and an axon extending from a second order axon branch is defined as a third order axon branch, et cetera (FIG. 3A). Only axons longer than 10 μm are counted.

| Molecule | lengths of the first and second order axon branches ([7]; 10^−9 M, vs negative control) | axon outgrowth [7] | also measured |
| --- | --- | --- | --- |
| O=C[C@H](O)[C@@H](O)[C@@H](O)[C@H](O)CO [D-Galactose, D-(+)-galactose] |  |  | average escape latency in finding the hidden platform [1]: 53.06 s |
| CN1CC=C(c2ccccc2)CC1 [MPTP, 1-methyl-4-phenyl-1,2,3,6-tetrahydropyridine] |  |  | average latency to fall [2]: 159.8 s |
| CN1[C@@H]2C[C@@H](OC(=O)[C@H](CO)c3ccccc3)C[C@H]1[C@@H]1O[C@@H]12 [Sco, Scopolamine hydrochloride] |  |  | stepping down (jumping error number) [3]: stepped down more; escape latency in finding the hidden platform [4]: longer escape latency; exploratory preference for the novel object (NO) [5]: no exploratory preference for the NO |
| NAIPQ [C5 peptide, NAIPQ] |  |  | neurotoxic effect (cell viability, MTT) [6]: no significant neurotoxic effect |
| NFEPQ (Petide for enhancing neuronal outgrowth) [P1 peptide] | longer | enhanced axon outgrowth |  |
| NIKPQ (Petide for enhancing neuronal outgrowth) [P3 peptide] | longer | enhanced axon outgrowth |  |
| NLMPQ (Petide for enhancing neuronal outgrowth) [P4 peptide] | longer | enhanced axon outgrowth |  |
| NMYPQ (Petide for enhancing neuronal outgrowth) [P2 peptide] | longer | enhanced axon outgrowth |  |
| NPSPQ [C6 peptide, NPSPQ] |  |  | neurotoxic effect (cell viability, MTT) [6]: no significant neurotoxic effect |
| NVAPQ (Petide for enhancing neuronal outgrowth) [P5 peptide] | longer | enhanced axon outgrowth |  |
| NWLPQ (Petide for enhancing neuronal outgrowth) [P6 peptide] | longer | enhanced axon outgrowth | average number of second order axon branches ([7]; 10^−9 M, negative control 2.5, p<0.01): 4.2; lengths of the third order axon branches ([7]; 10^−9 M, vs negative control, p<0.05): significantly longer |

From patent publication US10407465B2, “Peptides enhancing neuronal outgrowth and application thereof” (Schweitzer Biotech Company Ltd., priority 2014, dated 2019)
